Where no end group is shown, it is not given here. [ ]: non-standard residue; d: D form. Cit = NC(=O)NCCC[C@H](N)C(=O)O; Nle = CCCC[C@H](N)C(=O)O
Key:
Experiment in all cases: REVEAL binding assay
Conditions in all cases: score as percentage of the signal generated by the positive control peptide
[1] = test system: HLA-A1
[2] = test system: HLA-A24
[3] = test system: HLA-A29
Source text: (§5) The REVEAL™ binding assay determined the ability of each candidate peptide to bind to one or more MHC class I alleles and stabilizing the MHC-peptide complex. […] Detection is based on the presence or absence of the native conformation of the MHC-peptide complex. Each peptide is given a score relative to the positive control peptide, which is a known T cell epitope.

[4] = test system: HLA-B8
[5] = test system: HLA-B14
Source text: as §5

[6] = test system: HLA-B15
[7] = molecular target: HLA-A11 (Homo sapiens, UniProt P04439, A114D/F33Y/S129P)
Method: (§1) Binding properties to HLA for the ninemers listed in table 6 were tested for the following HLA-classes:
(§2) HLA-A1, HLA-A2, HLA-A3, HLA-A11, HLA-A24, HLA-A29, HLA-B7, HLA-B8, HLA-B14, HLA-B15, HLA-B27, HLA-B35, HLA-B40.
(§3) The peptides were synthesized as a Prospector PEPscreen®: Custom Peptide Library. […] Quality control by MALDI-TOF Mass Spectrometry was carried out on 100% of samples.
(§4) The REVEAL™ binding assay determined the ability of each candidate peptide to bind to one or more MHC class I alleles and stabilizing the MHC-peptide complex. By comparing the binding to that of high and intermediate affinity T cell epitopes, the most likely immunogenic peptides in a protein sequence can be identified. Detection is based on the presence or absence of the native conformation of the MHC-peptide complex. Each peptide is given a score relative to the positive control peptide, which is a known T cell epitope.

[8] = molecular target: HLA-A2 (Homo sapiens, UniProt P04439, D140Y/D185E/D98H/E176V/E277Q/G131W/G231S/I119V/I121R/I166T/I218V/N151K/N90K/P208A/P217A/Q86G/Q94H/R138H/R169H)
Method: as §1, §2, §3, §4

[9] = molecular target: HLA-A3 (Homo sapiens, UniProt P04439)
Sequence of HLA-A3 (P04439 25-299): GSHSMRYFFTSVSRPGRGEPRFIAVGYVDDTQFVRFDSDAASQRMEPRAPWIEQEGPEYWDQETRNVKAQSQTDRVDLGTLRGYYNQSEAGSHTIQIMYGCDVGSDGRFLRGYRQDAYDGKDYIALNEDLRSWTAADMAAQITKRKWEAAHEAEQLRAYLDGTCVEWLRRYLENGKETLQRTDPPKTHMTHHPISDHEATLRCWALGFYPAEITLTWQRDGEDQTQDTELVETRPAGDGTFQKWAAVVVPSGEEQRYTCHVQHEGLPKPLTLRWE
Sequence of HLA-A3 (P61769 21-119, further chain): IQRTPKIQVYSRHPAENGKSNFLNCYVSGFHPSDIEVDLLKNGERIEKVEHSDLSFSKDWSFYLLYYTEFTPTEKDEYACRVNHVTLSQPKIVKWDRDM
Method: as §1, §2, §3, §4

[10] = molecular target: HLA-B27 (Homo sapiens, UniProt P01889, D138H/D201E/E176V/E204Q/G107R/H137Y/K202T/N104T/N87E/Q56L/Q94K/R106L/R155S/R180L/S101D/S121N/S48T/Y140D/Y33H/Y91C)
Method: as §1, §2, §3, §4

[11] = molecular target: HLA-B7 (Homo sapiens, UniProt P01889)
Sequence of HLA-B7 (P61769 21-119): as the sequence (P61769 21-119, further chain) above
Sequence of HLA-B7 (P01889 25-299): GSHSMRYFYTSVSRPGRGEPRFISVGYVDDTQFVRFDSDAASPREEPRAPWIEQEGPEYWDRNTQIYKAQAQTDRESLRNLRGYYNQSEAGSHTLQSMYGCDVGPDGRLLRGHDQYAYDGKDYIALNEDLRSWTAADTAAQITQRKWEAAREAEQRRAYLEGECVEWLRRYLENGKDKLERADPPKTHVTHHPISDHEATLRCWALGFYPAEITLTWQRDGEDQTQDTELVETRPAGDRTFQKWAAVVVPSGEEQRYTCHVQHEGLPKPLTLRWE
Method: as §1, §2, §3, §4

[12] = test system: HLA-B35
[13] = test system: HLA-B40
Method: as §1, §2
The peptides were synthesized as a Prospector PEPscreen®: Custom Peptide Library. Peptides 8-15 amino acids in length were synthesized in 0.5-2 mg quantities with high average purity. Quality control by MALDI-TOF Mass Spectrometry was carried out on 100% of samples.
as §4, with “epitope. The score of the test peptide is reported quantitatively as a percentage of the signal generated by the positive control peptide, and the peptide is indicated as having a putative pass or fail result. Assay performance is confirmed by including an intermediate control peptide that is known to bind with weaker affinity to the allele under investigation.” for “epitope.”

Substance | REVEAL binding score, HLA-type A1 [1] [%] | REVEAL binding score, HLA-type A24 [2] [%] | REVEAL binding score, HLA-type A29 [3] [%] | REVEAL binding score, HLA-type B8 [4] [%] | REVEAL binding score, HLA-type B14 [5] [%] | REVEAL binding score, HLA-type B15 [6] [%] | REVEAL binding score, HLA-type A11 [7] [%] | REVEAL binding score, HLA-type A2 [8] [%] | REVEAL binding score, HLA-type A3 [9] [%] | REVEAL binding score, HLA-type B27 [10] [%] | REVEAL binding score, HLA-type B7 [11] [%] | REVEAL binding score, HLA-type B35 [12] [%] | REVEAL binding score, HLA-type B40 [13] [%]
ARALAHGVR | 20.62 | 1.15 | 31.96 | 18.91 | 1.10 | 13.58 | 3.83 | 6.72 | 2.35 | 3.55 | 4.70 | 2.45 | 50.23
ATGNLPGCS | 7.13 | 0.64 | 22.84 | 10.73 | 0.87 | 3.81 | 2.54 | 4.62 | 3.64 | 2.56 | 1.12 | 7.00 | 90.48
DLMGYIPLV | 16.67 | 1.14 | 25.64 | 22.65 | 0.23 | 7.67 | 5.01 | 103.34 | 4.66 | 1.05 | 4.84 | 2.49 | 39.33
EL[Nle]GYIPLI | 18.29 | 0.92 | 20.93 | 17.05 | 0.14 | 8.91 | 3.21 | 97.87 | 4.54 | 0.67 | 0.68 | 2.55 | 43.10
GGQIIGGNY | 24.04 | 0.39 | 14.38 | 10.52 | 0.25 | 90.62 | 2.40 | 7.06 | 2.23 | 0.24 | 1.09 | 2.22 | 15.03
GGQIVGGVY | 13.97 | 1.78 | 20.46 | 14.66 | 0.32 | 110.34 | 2.71 | 6.88 | 3.47 | 0.66 | 3.99 | 0.54 | 30.75
GITFSIYLI | 9.61 | 3.05 | 10.42 | 8.94 | 0.63 | 8.15 | 4.88 | 7.27 | 1.42 | 3.29 | 2.07 | 9.27 | 68.30
GKVIDTLTC | 14.77 | 0.41 | 14.26 | 13.63 | 0.16 | 7.31 | 3.96 | 4.89 | 3.69 | 0.84 | 0.25 | 3.11 | 19.45
GNIPGSTYS | 7.54 | 0.00 | 24.38 | 6.32 | 0.34 | 4.80 | 1.54 | 5.07 | 5.04 | 1.58 | 0.94 | 7.86 | 55.59
GNLPGCSFS | 6.44 | 1.13 | 13.48 | 8.71 | 0.81 | 3.96 | 2.41 | 6.11 | 3.54 | 13.44 | 1.84 | 4.80 | 80.68
GP[Cit]IGVRAT | 18.60 | 0.16 | 11.88 | 9.99 | 0.13 | 7.29 | 2.72 | 9.16 | 3.48 | 0.59 | 5.38 | 2.25 | 19.61
GQIIGGNYL | 20.65 | 0.47 | 14.17 | 11.90 | 0.22 | 173.66 | 2.77 | 12.96 | 3.01 | 0.64 | 2.39 | 2.60 | 31.55
GQIVGGVYL | 15.07 | 0.50 | 13.73 | 14.53 | 0.37 | 182.45 | 4.46 | 55.85 | 4.80 | 1.01 | 6.56 | 3.24 | 24.20
GRVIETLTS | 14.42 | 0.88 | 15.59 | 12.91 | 0.20 | 8.31 | 27.62 | 5.26 | 12.46 | 1.05 | 1.25 | 3.56 | 38.91

— patent US9550811B2, “Peptide scaffold design” (BIONOR IMMUNO AS, priority 2010, dated 2017)
